Converted amounts (≈) assume the structure as drawn.
Tests used:
[1] = system: fungi; conditions: prior art, Japanese patent publications; cited from earlier work
[2] = system: Pseudoperonospora cubensis; test: Test B-3 Control Test to Downy Mildew of Cucumber; format: in vivo; conditions: 500 ppm, 7 days
Description: Test B-3 Control Test to Downy Mildew of Cucumber
Each cucumber seedling was sprayed with 2.5 ml of a test solution in the same manner as in Test B-1. After the spraying, the seedlings were kept at 25°-26° C. for a day and a zoosporangium suspension or Pseudoperonospora cubensis was inoculated at a rate of five spots per leaf on a primary leaf. The treated seedlings were kept in a greenhouse for 7 days and then observed.
(2) Slight disease at the inoculation spot . . . X5
(3) A disease spot in the same size as the inoculation spot (without spreading) . . . x10
(4) A disease spot larger than the inoculation spot . . . x20
Disease degree and percent disease control were calculated in the same manner as in Test B-1.

[3] = system: Sclerotinia sclerotiorum; test: Test B-2 Control Test to Sclerotinia Rot of Cucumber; format: in vivo; conditions: 48 h, 2 days, read-out: Percent Disease Control
Description: Test B-2 Control Test to Sclerotinia Rot of Cucumber
Cucumber seedlings were sprayed with 2.5 ml of a test solution in the same manner as in Test B-1. Afterthe spraying, the seedlings were kept at 25°-26° C. for a day and three disks of 4 mm in diameter containing mycelia of Sclerotinia sclerotiorum were put on a primary leaf and then 10 μl of PD broth were dropped on the disks. The treated seedlings were kept ina greenhouse (20° C.) for 2 days and then the diameters of the disease spots were measured by a pair of slide callipers. [formula]

[4] = system: Aspergillus fumigatus; test: Test A-1 Anti-fungal Activity (MIC), microwell dilution; format: cell-based; conditions: in vitro, 1×10^5 cells/ml
Description: (§1) Test A-1 Anti-fungal Activity (MIC)
(§2) The concentration of the test cells was 1×10^5 cells/ml and the activity was measured by a microwell dilution method. The structure of the test compounds is referred to in the Examples.

[5] = system: Candida albicans M-9; test: as above; format: cell-based; conditions: M9, C. albicans M-9, in vitro, 1×10^5 cells/ml
Description: as §1, §2

[6] = system: Trichophyton asteroides; test: as above; format: cell-based; conditions: T. asteroides, in vitro, 1×10^5 cells/ml
Description: as §1
The following results (Table 1) were obtained in an anti-fungal activity test in vitro against Aspergillus fumigatus, Candida albicans M-9 and Trichophyton asteroides. The concentration of the test cells was 1×10^5 cells/ml and the activity was measured by a microwell dilution method. The structure of the test compounds is referred to in the Examples.

[7] = system: Botrytis cinerea; test: Test B-1 Control Test of Botrytis Rot (Gray Mold) of Cucumber; format: in vivo; conditions: 500 ppm, 3 days
Description: Test B-1 Control Test of Botrytis Rot (Gray Mold) of Cucumber Seedlings of Cucumber (Cultivar: Matsukaze) were planted and grown in soil in vinyl-chloride cups of 9 cm in diameter in a greenhouse. […] The treated cucumbers were kept for 3 days in a greenhouse (20° C.) and then disease degrees were counted. Standard of Evaluation […] (2) A slight soaked lesion on the reverse of the test leaf . . . × 5 (3) A slight fade of the leaf . . . × 10 (4) The inoculated part was faded and the fading expanded erosively . . . × 20 [formula]

[8] = system: Sphaerotheca fuliginea; test: Test B-5 Control Test to Powdery Mildew of Cucumber; format: in vivo; conditions: 500 ppm, 2 weeks
Description: Test B-5 Control Test to Powdery Mildew of Cucumber
Each cucumber seedling was sprayed with 2.5 ml of a test solution. The seedlings were kept at 25°-26° C. for 1 day after the spraying and then sprayed with a conidium (1×10^5 conidia/ml) of Sphaerotheca fuliginea in a 100 ppm spreader solution (containing 20% polyoxyethylene glycol alkyl phenol ether and 12% lignin sulfonate) at a rate of 25 ml/20 cups.
The seedlings were kept in a greenhouse (25° C.) for 2 weeks and then observed.
Standard of Evaluation [formula]
The percent disease control was calculated in the same manner as in Test B-1.

[9] = system: Colletotrichum lagenarium; test: Test B-4 Control Test to Anthracnose of Cucumber; format: in vivo; conditions: 500 ppm, 3 + 3 days
Description: Test B-4 Control Test to Anthracnose of Cucumber Each cucumber seedling was sprayed with 2.5 ml of a test solution in the same manner as in Test B-1. After the spraying, the seedlings were kept at 25°-26° C. for a day and were inoculated with five filter-paper disks of 6 mm in diameter saturated with a conidium suspension of Colletotrichum lagenarium at a concentration of 1×10^6 conidia/ml. The treated seedlings were kept in a greenhouse (25° C.) for 3 days and further kept at below 25° C. for 3 days. Standard of Evaluation The same as noted in Test B-3.

[10] = system: Trichophyton asteroides; test: Test A-2 Anti-fungal Activity (MCC); conditions: 168 h, read-out: MCC (Minimal Cidal Concentration)
Description: (§3) Some MCC (Minimal Cidal Concentration) values (Table 1) were obtained against Candida albicans and Trichophyton asteroides by the following method. After the MIC value was obtained by the microwell method, a loopful amount was picked up from the medium in which no growth of the fungus was observed, inoculated into a Subrouraud's glucose agar medium and incubated at 28° C. for 2 days in the case of C. albicans and for 7 days in the case of T. asteroides.

[11] = system: Candida albicans; test: Test A-2 Anti-fungal Activity (MCC); conditions: 48 h, read-out: MCC (Minimal Cidal Concentration)
Description: as §3

[12] = system: Mycoplasma gallisepticum; test: minimum inhibition concentration; format: cell-based; conditions: Mycoplasmoides gallisepticum, one range for the listed compounds
[13] = system: Mycoplasma hyopneumonia; test: growth inhibition of a swine enzootic pneumonia-causative bacteria; format: cell-based; conditions: one range for the listed compounds, read-out: concentration inhibiting the growth
[14] = system: Pyricularia oryzae; format: in vivo; conditions: 500 ppm; rice plant blast, 24 hours + 7 days

## Cc1cc(OCC#CI)no1 [3-(3-iodo-2-propynyl)oxy-5-methylisoxazole]
[1]
  anti-fungal activity: anti-fungal and anti-septic agent for woods

## IC#CCOc1noc2ccccc12 [3-(3-iodo-2-propynyloxy)benzisoxazole]
[1]
  anti-fungal activity: has the same activity

## CCc1noc(N(C)CC#CI)c1Cl [Comp. 1, 3-ethyl-4-chloro-5-(N-methyl-N-3-iodo-2-propynyl)-aminoisoxazole]
[2]
  Percent Disease Control: 100%
[3]
  pest or weed control at 500 ppm: 100%
[4]
  MIC: 6.3 µg/mL (≈ 19.4 µM)
[5]
  MIC: 3.1 µg/mL (≈ 9.55 µM)
[6]
  MIC: 0.8 µg/mL (≈ 2.46 µM)
[7]
  Percent Disease Control: 100%
[8]
  Percent Disease Control: 100%
[9]
  Percent Disease Control: 100%

## Clc1c(-c2ccccc2)noc1NCC#CI [Comp. 2, 3-phenyl-4-chloro-5-(3-iodo-2-propynyl)aminoisoxazole]
[4]
  MIC: 6.2 µg/mL (≈ 17.3 µM)
[5]
  MIC: 0.1 µg/mL (≈ 0.279 µM)
[6]
  MIC: 0.4 µg/mL (≈ 1.12 µM)

## Cc1cc(N(C)CC#CI)on1 [Comp. 3]
[4]
  MIC: 0.8 µg/mL (≈ 2.9 µM)
[5]
  MIC: 0.4 µg/mL (≈ 1.45 µM)
[6]
  MIC: 1.6 µg/mL (≈ 5.8 µM)

## CCN(CC#CI)c1cc(C)no1 [Comp. 4]
[10]
  MFC: 3.1 µg/mL (≈ 10.7 µM)
[11]
  MFC: 25 µg/mL (≈ 86.2 µM)
[4]
  MIC: 1.6 µg/mL (≈ 5.52 µM)
[5]
  MIC: 0.8 µg/mL (≈ 2.76 µM)
[6]
  MIC: 1.6 µg/mL (≈ 5.52 µM)

## CCc1cc(N(C)CC#CI)on1 [Comp. 5]
[2]
  Percent Disease Control: 95.0%
[12]
  MIC: 6.25 to 12.5 µg/mL (≈ 21.5 to 43.1 µM)
[3]
  pest or weed control at 500 ppm: 100%
[4]
  MIC: 1.6 µg/mL (≈ 5.52 µM)
[5]
  MIC: 0.8 µg/mL (≈ 2.76 µM)
[6]
  MIC: 1.6 µg/mL (≈ 5.52 µM)
[7]
  Percent Disease Control: 100%

## CC(C)c1cc(N(C)CC#CI)on1 [Comp. 6]
[10]
  MFC: 3.1 µg/mL (≈ 10.2 µM)
[11]
  MFC: 25 µg/mL (≈ 82.2 µM)
[3]
  pest or weed control at 500 ppm: 100%
[4]
  MIC: 1.6 µg/mL (≈ 5.26 µM)
[5]
  MIC: 0.8 µg/mL (≈ 2.63 µM)
[6]
  MIC: 1.6 µg/mL (≈ 5.26 µM)
[9]
  Percent Disease Control: 100%

## CN(CC#CI)c1cc(C2CC2)no1 [Comp. 8]
[4]
  MIC: 1.6 µg/mL (≈ 5.3 µM)
[5]
  MIC: 0.8 µg/mL (≈ 2.65 µM)
[6]
  MIC: 3.1 µg/mL (≈ 10.3 µM)

## CN(CC#CI)c1cc(C2CCCCC2)no1 [Comp. 9]
[2]
  Percent Disease Control: 100%
[13]
  MIC: 3.13 to 12.5 µg/mL (≈ 9.09 to 36.3 µM)

## CN(CC#CI)c1cc(-c2ccco2)no1 [Comp. 10]
[4]
  MIC: 1.6 µg/mL (≈ 4.88 µM)
[5]
  MIC: 0.8 µg/mL (≈ 2.44 µM)
[6]
  MIC: 0.8 µg/mL (≈ 2.44 µM)

## CN(CC#CI)c1cc(-c2cccs2)no1 [Comp. 11]
[10]
  MFC: 1.6 µg/mL (≈ 4.65 µM)
[11]
  MFC: 12.5 µg/mL (≈ 36.3 µM)
[4]
  MIC: 3.1 µg/mL (≈ 9.01 µM)
[5]
  MIC: 0.8 µg/mL (≈ 2.32 µM)
[6]
  MIC: 1.6 µg/mL (≈ 4.65 µM)
[7]
  Percent Disease Control: 100%

## CN(CC#CI)c1cc(-c2ccccc2)no1 [Comp. 13]
[4]
  MIC: 3.1 µg/mL (≈ 9.17 µM)
[5]
  MIC: 3.1 µg/mL (≈ 9.17 µM)
[6]
  MIC: 3.1 µg/mL (≈ 9.17 µM)
[13]
  MIC: 3.13 to 12.5 µg/mL (≈ 9.26 to 37 µM)
[14]
  Percent Disease Control: 99%
